Converted amounts (≈) assume the structure as drawn. Read-outs that look alike come from different tables or passages of the source. Positions of bridges follow the written chain, without caps; N, C: chain ends. Non-standard residues stand in square brackets, D forms with d. Residues, ends and D or L forms follow the SMILES beside them. ξ: configuration not given here. *: point of attachment. Hexanoyl(4ξ-Me) = CCC(C)CCC(=O)*; dOrn = NCCC[C@@H](N)C(=O)O; Orn = NCCC[C@H](N)C(=O)O
Tests used:
[1] = system: Gram-negative bacteria; experiment: MIC comparison across the bacterial panel of Table 1; type: cell-based; settings: enantiomer versus natural product, strains of Table 1
Experimental: (§1) Minimum inhibitory concentrations (MICs) were determined by broth microdilution according to CLSI guidelines in triplicate. Blood agar plates were inoculated with glycerol stocks of E. coli ATCC 25922, E. coli MCR-1 (clinical isolate from Utrecht Medical Centre, NL), E. coli EQAS MCR-2 (clinical isolate from Wageningen University and Research, NL), K. pneumoniae ATCC 11228, K. pneumoniae ATCC 13883, K. pneumonia 2048 (clnical isolate from Vrije Universiteit Amsterdam Medical Centre, NL), K. pneumonia JS-123 (clinical isolate from Utrecht Medical […]
(clinical isolate from Rijksinstituut voor Volksgezondheid en Milieu, NL), A. baumannii MDR (clinical isolate from Vrije Universiteit Amsterdam Medical Centre, NL), P. aeruginosa ATCC 27853, P. aeruginosa PAO1, P. aeruginosa NRZ-03961 (Reference strain from Das Nationale Referenzzentrum für gramnegative Krankenhauserreger, DE), P. aeruginosa M-120 (clinical isolate from Leiden University Medical Centre, NL) and S. aureus USA300 (clinical isolate from Texas Children's Hospital, USA). E. coli 25922 MCR1 was grown on LB agar supplemented with kanamycin. The inoculated agar plates were then incubated for 16 h at 37°C . […] In parallel, the lipopeptide antibiotics to be assessed were serially diluted with Mueller-Hinton broth (MHB) in polypropylene 96-well plates (50 µL in each well). […]

[2] = system: A. baumannii ATCC 17978; type: cell-based
Experimental: as §1
(§2) (clinical isolate from Rijksinstituut voor Volksgezondheid en Milieu, NL), A. baumannii MDR (clinical isolate from Vrije Universiteit Amsterdam Medical Centre, NL), P. aeruginosa ATCC 27853, P. aeruginosa PAO1, P. aeruginosa NRZ-03961 (Reference strain from Das Nationale Referenzzentrum für gramnegative Krankenhauserreger, DE), P. aeruginosa M-120 (clinical isolate from Leiden University Medical Centre, NL) and S. aureus USA300 (clinical isolate from Texas Children's Hospital, USA). E. coli 25922 MCR1 was grown on LB agar supplemented with kanamycin. The inoculated agar plates were then incubated for 16 h at 37°C . Individually grown colonies were subsequently used to inoculate 3 mL aliquots of TSB that were then incubated at 37°C with shaking at 220 rpm. In parallel, the lipopeptide antibiotics to be assessed were serially diluted with Mueller-Hinton broth (MHB) in polypropylene 96-well plates (50 µL in each well).
(§3) Once the OD600 of the bacterial suspensions reached 0.5, the bacteria were diluted with MHB (final concentration 2 × 10^5 CFU mL−1) and added to the microplates containing the test compounds (50 µL to each well, final volume: 100 µL). The well-plates were sealed with an adhesive membrane and after 16 h of incubation at 37°C with shaking at 220 rpm the wells were visually inspected for bacterial growth. MIC values reported are based on three technical replicates and defined as the lowest concentration of the compound that prevented visible growth of bacteria. […]

[3] = system: P. aeruginosa NRZ-03961; type: cell-based
Experimental: as §1, §2, §3

[4] = system: K. pneumoniae JS-123; type: cell-based
Experimental: as §1, §2, §3

[5] = system: P. aeruginosa PAO1; type: cell-based
Experimental: as §1, §2, §3

[6] = system: K. pneumoniae ATCC 11228; type: cell-based
Experimental: as §1, §2, §3

[7] = system: S. aureus USA300; type: cell-based
Experimental: as §1, §2, §3

[8] = system: A. baumannii 2018-006; type: cell-based
Experimental: as §1, §2, §3

[9] = system: K. pneumoniae 2048; type: cell-based
Experimental: as §1, §2, §3

[10] = system: K. pneumoniae ATCC 13883; type: cell-based
Experimental: as §1, §2, §3

[11] = system: E. coli ATCC 25922; type: cell-based
Experimental: as §1, §2, §3

[12] = system: A. baumannii ATCC 17961; type: cell-based
Experimental: as §1, §2, §3

[13] = system: P. aeruginosa ATCC 27853; type: cell-based
Experimental: as §1, §2, §3

[14] = system: P. aeruginosa M-120; type: cell-based
Experimental: as §1, §2, §3

[15] = system: E. coli ATCC 25922 MCR-1; type: cell-based; settings: Ec ATCC 25922 MCR-1; broth microdilution (CLSI), MHB, 16 h 37 °C, three technical replicates
Experimental: as §1, §2, §3

[16] = system: E. coli EQAS MCR-2; type: cell-based; settings: Ec EQAS MCR-2; broth microdilution (CLSI), MHB, 16 h 37 °C, three technical replicates
Experimental: as §1, §2, §3

[17] = system: E. coli MCR-1 (clinical isolate); type: cell-based
Experimental: as §1, §2, §3

[18] = system: A. baumannii MDR; type: cell-based
Experimental: as §1, §2, §3

[19] = system: E. coli ATCC 25922; experiment: Neutropenic mouse thigh infection efficacy study; type: in vivo, mice (ICR); settings: neutropenic mice, E. coli ATCC 25922 thigh infection, 20 mg kg^−1 SC q8h
Experimental: In vivo tolerability and efficacy studies
Ethical Issues. Animal experiments were performed under UK Home Office Licences P89653310 (tolerability and PK) and PA67E0BAA (thigh efficacy), with local ethical committee clearance.
Animal Strain. Mice used in these studies were supplied by Charles River (Margate UK) and were specific pathogen free. The strain of mice used was ICR (also known as CD1 Mice) which is a well characterized outbred murine strain. Mice (male) were 11-15 g on receipt and were allowed to acclimatise for at least 7 days.
Animal Housing. Mice were housed in sterilised individual ventilated cages exposing the mice at all times to HEPA filtered sterile air. Mice had free access to food and water and had aspen chip bedding (changed at least once weekly). The room temperature was 22°C +/ - 1°C, with a relative humidity of 60% and maximum background noise of 56 dB. Mice were exposed to 12 h light/dark […]
Test compounds. Compound 6 was dissolved in water for injection in which it formed a clear […]
colourless solution. […]
Compound 6 was administered via subcutaneous administration route at 3 8-h […]
The mice used in the tolerability study were naïve and were not immunosuppressed or infected.
Efficacy study. The in vivo efficacy of compound 6 was assessed in a mouse thigh abscess model where both thighs of each mouse were infected with E. coli ATCC 25922
Immunosuppression. […]
Endpoints. One h and 20.5 (planned 25) h post-infection, the clinical condition of all animals was assessed prior to humane euthanasia using pentobarbitone overdose, and the thighs were removed and weighed. Thigh samples were homogenized in 3mL ice cold sterile PBS; the homogenates were quantitatively cultured onto CLED agar and incubated at 37°C for 18 - 24 h before colonies were […]
Data analysis. The data from the culture burdens were analysed using appropriate non-parametric statistical models (Kruskal-Wallis using Conover-Inman to make all pairwise comparisons between groups) with StatsDirect software v. […]

| Compound | MIC ([2]; ATCC 17978, 16 h) [µg/mL] | MIC ([3]; NRZ-03961, 16 h) [µg/mL] | MIC ([4]; JS-123, 16 h) [µg/mL] | MIC ([5]; PAO1, 16 h) [µg/mL] | MIC ([6]; ATCC 11228, 16 h) [µg/mL] | MIC ([7]; USA300, 16 h) [µg/mL] | MIC ([8]; 2018-006, 16 h) [µg/mL] | MIC ([9]; 2048, 16 h) [µg/mL] | MIC ([10]; ATCC 13883, 16 h) [µg/mL] | MIC ([11]; ATCC 25922, 16 h) [µg/mL] | MIC ([12]; ATCC 17961, 16 h) [µg/mL] | MIC ([13]; ATCC 27853, 16 h) [µg/mL] | MIC ([14]; M-120, 16 h) [µg/mL] | MIC [16] [µg/mL] | other results |
| --- | --- | --- | --- | --- | --- | --- | --- | --- | --- | --- | --- | --- | --- | --- | --- |
| CCC(C)CCC(=O)N[C@@H](CC(N)=O)C(=O)N[C@@H](Cc1ccc(O)cc1)C(=O)N[C@@H](Cc1c[nH]c2ccccc12)C(=O)N[C@@H](CCCN)C(=O)N[C@H](CCCN)C(=O)NCC(=O)N[C@@H](CCCN)C(=O)N[C@H](Cc1c[nH]c2ccccc12)C(=O)N[C@H]1C(=O)N[C@H]([C@H](C)CC)C(=O)NCC(=O)N[C@H](CO)C(=O)O[C@H]1C (single isomer, unassigned) [ent-Brev (ent-1), ent-brevicidine] | 16 to 32 | 32 (≈ 21.1 µM) | 8 (≈ 5.26 µM) | 32 (≈ 21.1 µM) | 32 (≈ 21.1 µM) | >64 | 8 to 16 | 32 (≈ 21.1 µM) | 32 (≈ 21.1 µM) | 16 (≈ 10.5 µM) | 32 (≈ 21.1 µM) | 16 (≈ 10.5 µM) | 16 (≈ 10.5 µM) |  | MIC values higher than the natural products [1]: 8- to 32 fold |
| CCC(C)CCC(=O)N[C@H](CC(N)=O)C(=O)N[C@H](Cc1ccc(O)cc1)C(=O)N[C@H](Cc1c[nH]c2ccccc12)C(=O)N[C@H](CCCN)C(=O)N[C@@H](CCCN)C(=O)NCC(=O)N[C@H](CCCN)C(=O)N[C@@H](Cc1c[nH]c2ccccc12)C(=O)N[C@H]1COC(=O)[C@H](CO)NC(=O)CNC(=O)[C@H]([C@@H](C)CC)NC1=O (stereo partly drawn) [Ser9-Brev (3), Ser9-Brevicidine] ({Hexanoyl(4ξ-Me)}-[dN][dY][dW][dOrn][Orn]G[dOrn]WSIGS; ester 9-C) | 2 (≈ 1.33 µM) | 4 (≈ 2.66 µM) | 2 (≈ 1.33 µM) | 2 to 4 | 2 (≈ 1.33 µM) | >64 | 2 (≈ 1.33 µM) | 4 (≈ 2.66 µM) | 2 (≈ 1.33 µM) | 4 (≈ 2.66 µM) | 0.5 to 1 | 1 (≈ 0.664 µM) | 2 (≈ 1.33 µM) | 4 to 8 | MIC [15]: 4 µg/mL (≈ 2.66 µM); MIC ([17]; MCR-1 (clinical isolate, 16 h)): 2 µg/mL (≈ 1.33 µM); MIC ([18]; MDR, 16 h): 1 to 2 µg/mL |
| polymyxin B [PolyB, reference compound] |  |  |  |  |  |  |  |  |  |  |  |  |  | 4 | MIC ([2]; Ab ATCC 17978, broth microdilution (CLSI), MHB, 16 h 37 °C, three technical replicates): <0.25 µg/mL; MIC ([3]; Pa NRZ-03961, broth microdilution (CLSI), MHB, 16 h 37 °C, three technical replicates): 0.25 to 0.5 µg/mL; MIC ([4]; Kp JS-123, broth microdilution (CLSI), MHB, 16 h 37 °C, three technical replicates): <0.25 µg/mL; MIC ([5]; Pa PAO1, broth microdilution (CLSI), MHB, 16 h 37 °C, three technical replicates): 0.25 to 0.5 µg/mL; MIC ([6]; Kp ATCC 11228, broth microdilution (CLSI), MHB, 16 h 37 °C, three technical replicates): <0.25 µg/mL; MIC ([7]; Sa USA300, broth microdilution (CLSI), MHB, 16 h 37 °C, three technical replicates): 64 µg/mL; MIC ([17]; Ec MCR-1, broth microdilution (CLSI), MHB, 16 h 37 °C, three technical replicates): 2 to 4 µg/mL; MIC ([8]; Ab 2018-006, broth microdilution (CLSI), MHB, 16 h 37 °C, three technical replicates): <0.25 µg/mL; MIC ([9]; Kp 2048, broth microdilution (CLSI), MHB, 16 h 37 °C, three technical replicates): 0.5 to 1 µg/mL; MIC ([10]; Kp ATCC 13883, broth microdilution (CLSI), MHB, 16 h 37 °C, three technical replicates): 0.25 µg/mL; MIC ([11]; Ec ATCC 25922, broth microdilution (CLSI), MHB, 2 × 10^5 CFU/mL, 16 h 37 °C, visual read-out, three technical replicates): 0.5 µg/mL; MIC ([12]; Ab ATCC 17961, broth microdilution (CLSI), MHB, 16 h 37 °C, three technical replicates): <0.25 µg/mL; MIC ([13]; Pa ATCC 27853, broth microdilution (CLSI), MHB, 16 h 37 °C, three technical replicates): <0.25 µg/mL; MIC ([14]; Pa M-120, broth microdilution (CLSI), MHB, 16 h 37 °C, three technical replicates): <0.25 µg/mL; MIC ([18]; Ab MDR, broth microdilution (CLSI), MHB, 16 h 37 °C, three technical replicates): <0.25 µg/mL; antibacterial effect in thigh infection, compared with Dap9-Lat (6) at 40 mg kg^−1 [19]: comparable |
